Where two headings read alike, the source gives them in different places.
Assays:
Format in all cases: in vivo, human
[1] = Plasma pharmacokinetics, part 2 (IPF patients); conditions: for Cmin (plasma concentration at 24 h post-dose): BLQ: below limit of quantification (0.5 ng·mL^−1); for half-life / Cmax / concentration at 24 h / AUC(0-inf): human, plasma, inhaled; for concentration at 24 h: read-out: Cmin (plasma concentration at 24 h post-dose)
Method: Full plasma PK profiles were conducted on days 1 (first day of dosing) and 14 (last day of dosing). […] Standard noncompartmental methods were applied to derive PK parameters using Phoenix WinNonlin version 6.3 (Certara, Sheffield, UK). […] Drug compartment measurements in BAL alveolar macrophages and fluid were determined as described previously.

[2] = system: PDGF-BB; assay: Plasma biomarker PDGF-BB (Luminex/ELISA); conditions: for PDGF-BB raw data, Mean (SD) / PDGF-BB least square means % baseline±SEM: IPF patients
Method: (§1) All patients, investigators, sites and study sponsor personnel were blinded to the study group assignments throughout the study. Patients underwent study-specific assessments on days 2, 3, 7, 14 and 15, and a post-study assessment was carried out 26–30 days after the last day of the study period. Assessments included vital signs (supine blood pressure, pulse, oxygen saturation, oral temperature and respiratory rate), spirometry, 12-lead ECG, physical examination, laboratory safety screen (haematology, biochemistry, urinalysis and urinary drugs of abuse screen) and blood sampling for PK measurements. All adverse events and concomitant medications were recorded from the time of the screening visit until the post-study follow-up visit. BAL was performed at day −1 (24 h before the first dose) and at day 14 (2 h after the last dose). The BAL procedure was performed as per international guidelines. Briefly, 240 mL of 0.9% saline at room temperature was instilled in 40 mL aliquots into the right middle lobe and aspirated by suction after each aliquot.
(§2) BAL cells were separated from fluid by centrifugation, and cells were collected, stained with antibodies (supplementary material) and then fixed before analysis using a LSR Fortessa flow cytometer (Becton Dickinson, Franklin Lakes, NJ, USA). Data were analysed using FlowJo software (Tree Star, Ashland, OR, USA). Macrophages were identified as having high side scatter properties and human leukocyte antigen-DR positivity. Gal-3 expression (mean fluorescence intensity) was determined from the macrophage gate (supplementary figures S1 and S2). […] Samples were analysed by magnetic Luminex assay (R&D Systems, Minneapolis, MN, USA) or ELISA.
(§3) For part 2 of the study, placebos were combined from the three dose-specific cohorts into a pooled control group (n=9). For alveolar macrophage Gal-3 expression and the plasma biomarkers, ANCOVA was performed for percentage of baseline ((day 14/day 1)×100). The ANCOVA model included effects for treatment group and baseline (day 1) value. […] An additional analysis including dose as a continuous covariate was also performed. The Pearson correlation coefficient (r) and associated p-value were calculated for percentage of baseline and day 14 values between plasma biomarkers and alveolar macrophage Gal-3 expression. […] The analysis is exploratory and there was no pre-planned adjustment for multiple testing; the study was not powered for this. Alveolar macrophage Gal-3 expression was considered the primary exploratory analysis with the pre-selected biomarkers secondary. A Bonferroni correction for multiple testing of the secondary end-points comparing the 10 mg group with placebo gives a critical value of 0.0063. Data are presented as the difference in least square means with 95% confidence interval and p-value unless otherwise stated. All analyses were performed using SAS version 9.4 (SAS Institute, Cary, NC, USA). […]

[3] = system: Gal-3; conditions: for Galectin-3 raw data, Mean (SD) / Gal-3 least square means % baseline±SEM: IPF patients; for Galectin-3 raw data, Mean (SD): Day 14; for Gal-3 least square means % baseline±SEM: day 14
Method: as §1, with “BAL was performed at day −1 (24 h before the first dose) and at day 14 (2 h after the last dose).” left out
as §2
as §3, with “Data are presented as the difference in least square means with 95% confidence interval and p-value unless otherwise stated.” left out
Plasma pharmacodynamic biomarkers
The following pre-specified biomarkers were evaluated in samples of plasma based on the basis

[4] = system: PDGF-AA; assay: Plasma biomarker PDGF-AA; conditions: for PDGF-AA raw data, Mean (SD) / PDGF-AA least square means % baseline±SEM: IPF patients
Method: as §1, §2, §3

[5] = system: Periostin; assay: Plasma biomarker periostin; conditions: for Periostin raw data, Mean (SD) / Periostin least square means % baseline±SEM: IPF patients
Method: as §1, §2, §3

[6] = IPF patients, after 14 days of dosing
[7] = 3 mg, IPF patients, Day 1, 3 mg once daily, mean±SD
[8] = 3 mg, IPF patients, Day 14, 3 mg once daily, mean±SD
[9] = 10 mg, IPF patients, Day 1, 10 mg once daily, mean±SD
[10] = 10 mg, IPF patients, Day 14, 10 mg once daily, mean±SD

Cmin (plasma concentration at 24 h post-dose) ([1]; IPF patients, Day 1, 0.3 mg once daily): BLQ
Cmin (plasma concentration at 24 h post-dose) ([1]; IPF patients, Day 14, 0.3 mg once daily): BLQ
accumulation [1, 6]: ~50%
increase in AUC0−inf, 10 mg values [1, 6]: 8 fold
increase in Cmax, 10 mg values [1, 6]: 5 fold
expected accumulation ([1]; from T1/2 of ∼8 h and dosing interval of 24 h): ~14%
half-life ([1]; inhaled or intranasal, overall value, read-out: plasma half-life (T1/2) (converted)): 8 h
Cmax ([1]; 0.3 mg, IPF patients, Day 1, 0.3 mg once daily, mean±SD): 0.55 ± 0.02 ng/mL
Cmax ([1]; 0.3 mg, IPF patients, Day 14, 0.3 mg once daily, mean±SD): 0.86 ± 0.25 ng/mL
concentration at 24 h [1, 7]: 1.06 ± 0.43 ng/mL
concentration at 24 h [1, 8]: 1.48 ± 0.51 ng/mL
AUC(0-inf) [1, 7]: 69 ± 50 ng·h/mL
Cmax [1, 7]: 10.6 ± 11.1 ng/mL
half-life ([1]; 3 mg, IPF patients, Day 1, 3 mg once daily, mean±SD, read-out: T1/2 (converted)): 6.36 ± 2.09 h
AUC(0-inf) [1, 8]: 149 ± 47 ng·h/mL
Cmax [1, 8]: 16.5 ± 8.34 ng/mL
half-life ([1]; 3 mg, IPF patients, Day 14, 3 mg once daily, mean±SD, read-out: T1/2 (converted)): 6.91 ± 1.4 h
concentration at 24 h [1, 9]: 12.9 ± 7.88 ng/mL
concentration at 24 h [1, 10]: 14.7 ± 8.64 ng/mL
AUC(0-inf) [1, 9]: 921 ± 479 ng·h/mL
Cmax [1, 9]: 56.3 ± 19.3 ng/mL
half-life ([1]; 10 mg, IPF patients, Day 1, 10 mg once daily, mean±SD, read-out: T1/2 (converted)): 9.69 ± 1.7 h
AUC(0-inf) [1, 10]: 1150 ± 462 ng·h/mL
Cmax [1, 10]: 82.8 ± 11.8 ng/mL
half-life ([1]; 10 mg, IPF patients, Day 14, 10 mg once daily, mean±SD, read-out: T1/2 (converted)): 8.2 ± 2.26 h
Structure (SMILES): OC[C@H]1O[C@@H](S[C@@H]2O[C@H](CO)[C@H](O)[C@H](n3cc(-c4cccc(F)c4)nn3)[C@H]2O)[C@H](O)[C@@H](n2cc(-c3cccc(F)c3)nn2)[C@H]1O [TD139]
PDGF-BB difference in least square means % baseline (95% CI) ([2]; 10 mg vs placebo, ANCOVA): −239.5 (−384.8– −94.2) % baseline
PDGF-BB raw data, Mean (SD) ([2]; Day 14, 0.3 mg): 1519 (1034.92) pg/ml
PDGF-BB raw data, Mean (SD) ([2]; Day 14, 3 mg): 2201.9 (2935.52) pg/ml
PDGF-BB raw data, Mean (SD) ([2]; Day 14, 10 mg): 1131.4 (1190.78) pg/ml
PDGF-BB least square means % baseline±SEM ([2]; day 14, 0.3 mg once daily): 90.5±55.2 % baseline
PDGF-BB least square means % baseline±SEM ([2]; day 14, 3 mg once daily): 103.7±54.1 % baseline
PDGF-BB least square means % baseline±SEM ([2]; day 14, 10 mg once daily): 35.7±54.2 % baseline
circulating Gal-3 plasma concentrations (percentage of baseline), difference versus placebo ([3]; 10 mg dose group): −67.63%
Galectin-3 raw data, Mean (SD) ([3]; plasma, 0.3 mg): 13290.4 (4951.24) pg/ml
Galectin-3 raw data, Mean (SD) ([3]; plasma, 3 mg): 9298.5 (3499.54) pg/ml
Galectin-3 raw data, Mean (SD) ([3]; plasma, 10 mg): 4486.3 (697.25) pg/ml
Gal-3 least square means % baseline±SEM ([3]; plasma, 0.3 mg once daily): 113.9±21.2 % baseline
Gal-3 least square means % baseline±SEM ([3]; plasma, 3 mg once daily): 119.5±21.3 % baseline
Gal-3 least square means % baseline±SEM ([3]; plasma, 10 mg once daily): 53.4±23.5 % baseline
Gal-3 difference in least square means % baseline (95% CI) ([3]; plasma, 10 mg vs placebo, ANCOVA): −67.6 (−126.9– −8.4) % baseline
PDGF-AA difference in least square means % baseline (95% CI) ([4]; 10 mg vs placebo, ANCOVA): −129.7 (−295.3–35.8) % baseline
PDGF-AA raw data, Mean (SD) ([4]; Day 14, 0.3 mg): 1299.7 (754.57) pg/ml
PDGF-AA raw data, Mean (SD) ([4]; Day 14, 3 mg): 4075.9 (5511.46) pg/ml
PDGF-AA raw data, Mean (SD) ([4]; Day 14, 10 mg): 2556.7 (987.79) pg/ml
PDGF-AA least square means % baseline±SEM ([4]; day 14, 0.3 mg once daily): 61.7±60.6 % baseline
PDGF-AA least square means % baseline±SEM ([4]; day 14, 3 mg once daily): 117.1±62.1 % baseline
PDGF-AA least square means % baseline±SEM ([4]; day 14, 10 mg once daily): 83.6±61.2 % baseline
Periostin difference in least square means % baseline (95% CI) ([5]; 10 mg vs placebo, ANCOVA): −5.4 (−18.8–8.0) % baseline
Periostin raw data, Mean (SD) ([5]; Day 14, 0.3 mg): 125952.3 (17487.63) pg/ml
Periostin raw data, Mean (SD) ([5]; Day 14, 3 mg): 142019.1 (30390.08) pg/ml
Periostin raw data, Mean (SD) ([5]; Day 14, 10 mg): 108663.7 (24686.82) pg/ml
Periostin least square means % baseline±SEM ([5]; day 14, 0.3 mg once daily): 114.0±5.3 % baseline
Periostin least square means % baseline±SEM ([5]; day 14, 3 mg once daily): 99.3±5.2 % baseline
Periostin least square means % baseline±SEM ([5]; day 14, 10 mg once daily): 93.1±5.0 % baseline

— article PMC8156151 (The European Respiratory Journal, 2021)
